Assays:
[1] = biological target: T1, Prostaglandin E synthase (Mus musculus) (UniProt Q9JM51); experiment: Inhibition of microsomal PGES1 in mouse J774 cells assessed as reduction of LPS-induced PGE2 production inhibition at 100 uM by radioimmuno assay in presence of radio labelled PGE2; assay type: cell-based
T1 sequence (whole entry): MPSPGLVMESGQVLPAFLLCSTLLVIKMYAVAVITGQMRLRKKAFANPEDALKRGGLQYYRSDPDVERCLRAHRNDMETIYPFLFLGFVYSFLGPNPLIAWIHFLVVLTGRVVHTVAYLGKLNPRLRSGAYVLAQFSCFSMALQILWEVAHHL

Prostaglandin E synthase [2] = biological target: T2, Prostaglandin E synthase (Homo sapiens, UniProt O14684); experiment: Inhibition of microsomal PGES1 in ILbeta-stimulated human A549 cells using PGH2 as substrate preincubated for 15 mins followed by substrate addition measured after 1 min by RP-HPLC analysis; assay type: cell-based
T2 sequence (O14684 whole entry): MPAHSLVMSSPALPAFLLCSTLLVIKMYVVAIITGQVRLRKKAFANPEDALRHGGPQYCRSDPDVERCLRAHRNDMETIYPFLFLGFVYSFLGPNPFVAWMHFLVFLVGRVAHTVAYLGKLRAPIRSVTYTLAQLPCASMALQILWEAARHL

[3] = biological target: Prostaglandin G/H synthase 1 (Homo sapiens, UniProt P23219); experiment: Inhibition of COX1 (unknown origin)
Prostaglandin E synthase [4] = biological target: T2, Prostaglandin E synthase; experiment: Inhibition of microsomal PGES1 (unknown origin)
Prostaglandin E synthase [5] = biological target: T2, Prostaglandin E synthase; experiment: Inhibition of recombinant human microsomal PGES1 using PGH2 as substrate preincubated for 15 mins followed by substrate addition measured after 5 mins by enzyme immunoassay
[6] = biological target: T3, Prostaglandin G/H synthase 2 (Homo sapiens, UniProt P35354); experiment: Inhibition of COX2 in IL1beta-induced human A549 cells using arachidonic acid as substrate assessed as 6-keto PGF1a formation preincubated for 10 mins followed by substrate addition measured after 30 mins by enzyme immunoassay; assay type: cell-based
T3 sequence (P35354 whole entry): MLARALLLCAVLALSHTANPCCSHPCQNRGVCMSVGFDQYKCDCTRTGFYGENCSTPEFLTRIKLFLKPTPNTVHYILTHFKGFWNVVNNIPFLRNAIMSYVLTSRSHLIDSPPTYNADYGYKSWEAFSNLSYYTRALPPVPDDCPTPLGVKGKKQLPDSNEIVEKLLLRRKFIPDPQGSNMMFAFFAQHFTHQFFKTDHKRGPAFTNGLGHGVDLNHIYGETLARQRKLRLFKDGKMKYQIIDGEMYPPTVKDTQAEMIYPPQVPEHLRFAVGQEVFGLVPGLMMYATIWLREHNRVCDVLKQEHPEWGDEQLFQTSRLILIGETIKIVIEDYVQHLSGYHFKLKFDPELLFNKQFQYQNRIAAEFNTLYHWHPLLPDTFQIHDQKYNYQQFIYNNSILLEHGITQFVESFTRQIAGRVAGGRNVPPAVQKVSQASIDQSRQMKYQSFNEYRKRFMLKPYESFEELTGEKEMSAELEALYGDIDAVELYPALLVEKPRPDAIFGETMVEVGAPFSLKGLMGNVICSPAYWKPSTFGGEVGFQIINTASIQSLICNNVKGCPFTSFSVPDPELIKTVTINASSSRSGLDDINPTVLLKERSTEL

Prostaglandin E synthase [7] = biological target: T2, Prostaglandin E synthase; experiment: Inhibition of microsomal PGES1 in ILbeta/TNFalpha-stimulated human A549 cells using PGH2 as substrate preincubated for 15 mins followed by substrate addition measured after 1 min by LC-MS/MS analysis; assay type: cell-based
[8] = biological target: T4, Polyunsaturated fatty acid 5-lipoxygenase (Homo sapiens, UniProt P09917); experiment: Inhibition of 5-lipooxygenase (unknown origin)
T4 sequence (P09917 whole entry): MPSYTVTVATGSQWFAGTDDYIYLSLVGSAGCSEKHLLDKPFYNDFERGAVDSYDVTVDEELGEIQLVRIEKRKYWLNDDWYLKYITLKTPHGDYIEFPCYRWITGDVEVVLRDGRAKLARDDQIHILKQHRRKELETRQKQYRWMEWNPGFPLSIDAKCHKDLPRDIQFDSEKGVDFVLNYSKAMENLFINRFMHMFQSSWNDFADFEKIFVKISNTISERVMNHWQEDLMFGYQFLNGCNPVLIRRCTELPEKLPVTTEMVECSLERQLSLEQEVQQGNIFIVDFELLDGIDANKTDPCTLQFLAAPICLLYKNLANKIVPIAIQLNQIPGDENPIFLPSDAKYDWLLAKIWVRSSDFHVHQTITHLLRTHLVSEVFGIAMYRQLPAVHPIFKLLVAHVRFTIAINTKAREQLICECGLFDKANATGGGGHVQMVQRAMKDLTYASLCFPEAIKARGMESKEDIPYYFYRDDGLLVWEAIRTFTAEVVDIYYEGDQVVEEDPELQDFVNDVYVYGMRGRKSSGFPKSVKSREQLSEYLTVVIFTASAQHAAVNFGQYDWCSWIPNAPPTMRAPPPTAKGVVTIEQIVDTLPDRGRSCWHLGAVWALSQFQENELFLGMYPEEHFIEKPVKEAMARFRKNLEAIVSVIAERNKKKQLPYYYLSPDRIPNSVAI

[9] = Inhibition of recombinant rat microsomal PGES1 using PGH2 as substrate incubated for 90 secs by MDA-TBA assay
Prostaglandin E synthase [10] = biological target: T2, Prostaglandin E synthase; experiment: Inhibition of human microsomal PGES1 using PGH2 as substrate incubated for 90 secs by MDA-TBA assay
[11] = Inhibition of recombinant rat microsomal PGES1 using PGH2 as substrate after 75 secs by MDA-TBA assay
Prostaglandin E synthase [12] = biological target: T2, Prostaglandin E synthase; experiment: Inhibition of human microsomal PGES1 using PGH2 as substrate incubated after 75 secs by MDA-TBA assay

Sequence of Prostaglandin G/H synthase 1 (P23219 whole entry): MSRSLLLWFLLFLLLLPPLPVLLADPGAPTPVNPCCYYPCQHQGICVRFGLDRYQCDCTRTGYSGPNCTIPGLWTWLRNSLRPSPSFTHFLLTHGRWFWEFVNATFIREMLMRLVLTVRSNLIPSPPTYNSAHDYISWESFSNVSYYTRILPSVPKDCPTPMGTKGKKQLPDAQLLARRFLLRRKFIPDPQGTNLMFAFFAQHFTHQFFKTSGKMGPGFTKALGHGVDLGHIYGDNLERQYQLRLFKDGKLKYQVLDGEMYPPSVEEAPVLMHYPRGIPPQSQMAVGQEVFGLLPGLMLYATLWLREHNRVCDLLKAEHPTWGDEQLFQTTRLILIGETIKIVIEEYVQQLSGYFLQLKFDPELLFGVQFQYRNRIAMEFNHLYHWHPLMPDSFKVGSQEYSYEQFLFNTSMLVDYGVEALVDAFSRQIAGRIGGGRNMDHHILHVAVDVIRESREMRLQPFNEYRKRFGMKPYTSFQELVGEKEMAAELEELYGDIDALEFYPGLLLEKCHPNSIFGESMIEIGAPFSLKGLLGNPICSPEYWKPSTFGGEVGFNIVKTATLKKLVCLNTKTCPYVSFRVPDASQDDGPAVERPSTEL

## O=C1c2c(O)cc(O)cc2OC(c2ccc(O)cc2)C1O (stereo unspecified)
[1]
  inhibition: 93.1%

## CCCCCC(=O)Cc1cc(O)cc2c1C(=O)Oc1cc(O)c(C(=O)O)c(CCCCC)c1O2 [PHYSODIC ACID]
Prostaglandin E synthase [2]
  IC50: 430 nM
[3]
  IC50: > 30 µM

## CC(=O)c1ccccc1-c1cc2c(C)c(CC(C)(C)C(=O)O)n(Cc3ccc(Cl)cc3)c2cc1F
Prostaglandin E synthase [4]; read-out: pIC50 (converted)
  IC50: 3.98 nM

## COc1cc(O)ccc1C1Oc2cc(O)cc(O)c2C(=O)C1O (stereo unspecified)
[1]
  inhibition: 94.3%

## Cc1c(CC(C)(C)C(=O)O)n(Cc2ccc(Cl)cc2)c2cc(F)c(-c3ccccc3Cl)cc12
Prostaglandin E synthase [4]; read-out: pIC50 (converted)
  IC50: 5.01 nM

## O=C(Nc1cccc2ccccc12)c1cccc(NC(=O)c2ccccc2Cl)c1
Prostaglandin E synthase [4]; read-out: IC50
  IC50: 200 nM

## CCCCCc1cc(OC(=O)c2c(O)cc(O)cc2CCCCC)cc(O)c1C(=O)O
Prostaglandin E synthase [2]
  IC50: 400 nM
[3]
  IC50: > 30 µM

## COc1ccccc1-c1cc2c(C)c(CC(C)(C)C(=O)O)n(Cc3ccc(Cl)cc3)c2cc1F
Prostaglandin E synthase [4]; read-out: pIC50 (converted)
  IC50: 6.92 nM

## COc1cc(/C=C/C(=O)CC(=O)/C=C/c2ccc(O)c(OC)c2)ccc1O [CURCUMIN]
Prostaglandin E synthase [2]
  IC50: 200 nM

## O=C(Nc1ccc2c(c1)c1ccccc1n2CCO)c1ccccc1C(F)(F)F
Prostaglandin E synthase [5]
  IC50: 900 nM

## CCc1oc(=O)c(Cc2c(O)c(CC=C(C)C)c(O)c(C(C)=O)c2O)c(O)c1C [ARZANOL]
[6]
  IC50: ≥ 30 µM

## COc1cc(C(=O)NS(=O)(=O)c2ccccc2C)ccc1Cc1cn(C)c2ccc(NC(=O)OC3CCCC3)cc12 [ZAFIRLUKAST]
Prostaglandin E synthase [7]
  IC50: 18.1 µM

## CCCCCCC(Sc1nc(Cl)cc(Nc2cccc(C)c2C)n1)C(=O)O (stereo unspecified)
[8]
  IC50: 2000 nM

## CC(=O)c1c(O)c(CC=C(C)C)c(O)c(C(c2ccccc2)c2c(O)cc(C)oc2=O)c1O (stereo unspecified)
Prostaglandin E synthase [2]
  IC50: 1000 nM

## Cc1cc2nc(N3CCC(C(=O)NC4CCCC4)CC3)n(C(C)C)c2cc1C
[9]
  IC50: 900 nM
Prostaglandin E synthase [10]
  IC50: 90 nM

## CC1=NN(C(N)=S)C(=O)/C1=N/Nc1cccc(Br)c1
[11]
  IC50: 620 nM
Prostaglandin E synthase [12]
  IC50: 1800 nM

## CCc1oc(=O)c(C(c2ccccc2)c2c(O)c(CC=C(C)C)c(O)c(C(C)=O)c2O)c(O)c1C (stereo unspecified)
Prostaglandin E synthase [2]
  IC50: 800 nM

## CC(C)c1cc2c(c(O)c1O)[C@@]13CCCC(C)(C)[C@@H]1C[C@@H]2OC3=O [CARNOSOL]
Prostaglandin E synthase [2]
  IC50: 5000 nM

## CCCCCC(=O)Cc1cc(O)cc(O)c1C(=O)Oc1cc(O)c(C(=O)O)c(CCCCC)c1
Prostaglandin E synthase [2]
  IC50: 1150 nM
[3]
  IC50: > 30 µM

## CC(C)c1cc2c(c(O)c1O)[C@@]1(C(=O)O)CCCC(C)(C)[C@@H]1CC2 [CARNOSIC ACID]
Prostaglandin E synthase [2]
  IC50: 5000 nM

## Cc1ccc(C)c(-c2cc(C(F)(F)F)nn2-c2ccc(S(N)(=O)=O)cc2)c1 [DIMETHYL CELECOXIB]
Prostaglandin E synthase [4]; read-out: IC50
  IC50: 600 nM
